Data set [1] has as its system HCT-116 colon carcinoma cells. The following applies: cited from earlier work.
The subject of data set [2] is L5178Y mouse lymphoma cells. Further details: method as in PMID 19995673, PMID 3839712. The following applies: cited from earlier work.
The test system of data set [3] is HeLa. Further details: method as in PMID 19995673, PMID 3839712. Particulars: cited from earlier work.
Data set [4] deals with HT-29 colorectal. Further details: method as in ref 21 = [21]; 21 Rodríguez J , Quiñoá E , Riguera R , Peters BM , Abrell LM , Crews P 1992 The structures and stereochemistry of cytotoxic sesquiterpene quinones from Dactylospongia elegans . Tetrahedron 48 , 6667. Particulars: cited from earlier work.
Data set [5] relates to melanoma B16/F10. Further details: method as in ref 21 = [21]; 21 Rodríguez J , Quiñoá E , Riguera R , Peters BM , Abrell LM , Crews P 1992 The structures and stereochemistry of cytotoxic sesquiterpene quinones from Dactylospongia elegans . Tetrahedron 48 , 6667. The following applies: cited from earlier work.
In data set [6] the test system is A-549 lung. On the set-up: method as in ref 21 = [21]; 21 Rodríguez J , Quiñoá E , Riguera R , Peters BM , Abrell LM , Crews P 1992 The structures and stereochemistry of cytotoxic sesquiterpene quinones from Dactylospongia elegans . Tetrahedron 48 , 6667. Particulars: cited from earlier work.
In data set [7] the test system is P-388 leukaemia cells. Further details: method as in ref 21 = [21]; 21 Rodríguez J , Quiñoá E , Riguera R , Peters BM , Abrell LM , Crews P 1992 The structures and stereochemistry of cytotoxic sesquiterpene quinones from Dactylospongia elegans . Tetrahedron 48 , 6667. The following applies: cited from earlier work.
For data set [8], the system named is leukaemia L-1210. Further details: method as in ref 22 = [22]; 22 Shigemori H , Madono T , Sasaki T , Mikami Y , Kobayashi JI 1994 Nakijiquinones A and B, new antifungal sesquiterpenoid quinones with an amino acid residue from an Okinawan marine sponge . Tetrahed. The following applies: read-out: GI50 leukaemia L-1210; cited from earlier work.
For data set [9], the system named is epidermoid KB cell line. Further details: method as in ref 22 = [22]; 22 Shigemori H , Madono T , Sasaki T , Mikami Y , Kobayashi JI 1994 Nakijiquinones A and B, new antifungal sesquiterpenoid quinones with an amino acid residue from an Okinawan marine sponge . Tetrahed. The following applies: cited from earlier work.
Data set [10] relates to HepG2 hepatoma cancer cell line. Further details: method as in ref 23 = [23]; 23 Jiao W-H , Xu T-T , Yu H-B , Mu F-R , Li J , Li Y-S , Yang F , Han B-N , Lin H-W 2014 Dysidaminones A-M, cytotoxic and NF-B inhibitory sesquiterpene aminoquinones from the South China Sea sponge, D. The following applies: cited from earlier work.
Data set [11] concerns NCI-H929 myeloma. Further details: method as in ref 23 = [23]; 23 Jiao W-H , Xu T-T , Yu H-B , Mu F-R , Li J , Li Y-S , Yang F , Han B-N , Lin H-W 2014 Dysidaminones A-M, cytotoxic and NF-B inhibitory sesquiterpene aminoquinones from the South China Sea sponge, D. The following applies: cited from earlier work.
Data set [12] deals with U87 (glioblastoma). Put plainly: MTT in vitro growth inhibition assay, U87. The format is cell-based.
Data set [13] deals with HT29 (colon carcinoma). Put plainly: MTT in vitro growth inhibition assay, HT29. The format is cell-based. Particulars: Homo sapiens.
For data set [14], the system named is SMA (spontaneous murine astrocytoma). Briefly: MTT in vitro growth inhibition assay, SMA. The format is cell-based. The following applies: Mus musculus.
Data set [15] deals with H460 (lung carcinoma). Put plainly: MTT in vitro growth inhibition assay, H460. Format: cell-based. The following applies: Homo sapiens.
In data set [16] the test system is MIA (pancreatic carcinoma). Put plainly: MTT in vitro growth inhibition assay, MIA. The format is cell-based.
Data set [17] has as its system BE2-C (neuroblastoma). Briefly: MTT in vitro growth inhibition assay, BE2-C. Format: cell-based. The following applies: Homo sapiens, BE(2)-C, 72 h.
The subject of data set [18] is SJ-G2 (glioblastoma). Put plainly: MTT in vitro growth inhibition assay, SJ-G2. Format: cell-based. Particulars: 25 µM of drug, 72 h, read-out: Percentage of Cell Growth Inhibition SJ-G2.
The test system of data set [19] is A2780 (ovarian carcinoma). Briefly: MTT in vitro growth inhibition assay, A2780. Particulars: Homo sapiens. The format is cell-based.
For data set [20], the system named is MCF10A (normal breast cell line). Briefly: MTT in vitro growth inhibition assay, MCF10A. Format: cell-based. The following applies: Homo sapiens, MCF-10A.
The test system of data set [21] is panel of 11 cancer cell lines and one normal cell line. Put plainly: Cytotoxicity across the whole cell line panel (MTT). Format: cell-based. From the text:
With the desired bolinaquinone analogues 12–43 in hand, we examined their cytotoxicity against a panel of 11 tumour cell lines: HT29 (colon carcinoma), U87 and SJ-G2 (glioblastoma), MCF-7 (breast carcinoma), A2780 (ovarian carcinoma), H460 (lung carcinoma), A431 (skin carcinoma), Du145 (prostate carcinoma), BE2-C (neuroblastoma), MIA (pancreatic carcinoma), SMA (spontaneous murine astrocytoma) and a normal breast cell line (MCF10A). The inclusion of the MCF-10A cell line allowed a determination of a crude measure of relative toxicity while noting that the ultimate arbiter of toxicity requires in vivo evaluation. All analogues were initially screened at a 25 µM drug concentration.
Stock solutions were prepared as follows and stored at −20°C: drugs were stored as 40 mM solutions in DMSO. All cell lines were cultured in a humidified atmosphere 5% CO2 at 37°C. The cancer cell lines were maintained in Dulbecco's modified Eagle's medium (DMEM) (Trace Biosciences, Australia) supplemented with 10% fetal bovine serum, 10 mM sodium bicarbonate, penicillin (100 IU ml^−1), streptomycin (100 µg ml^−1) and glutamine (4 mM). The non-cancer MCF10A cell line was cultured in DMEM:F12 (1 : 1) cell culture media, 5% heat-inactivated horse serum, supplemented with penicillin (50 IU ml^−1), streptomycin (50 µg ml^−1), 20 mM Hepes, L-glutamine (2 mM), epidermal growth factor (20 ng ml^−1), hydrocortisone (500 ng ml^−1), cholera toxin (100 ng ml^−1) and insulin (10 ug ml^−1).
Cells in logarithmic growth were transferred to 96-well plates. Cytotoxicity was determined by plating cells in duplicate in 100 µl medium at a density of 2500–4000 cells per well. On day 0 (24 h after plating), when the cells were in logarithmic growth, 100 μl of medium with or without the test agent was added to each well. After 72 h, drug exposure growth inhibitory effects were evaluated using the MTT (3-[4,5-dimethylthiazol-2-yl]-2,5-diphenyl-tetrazolium bromide) assay and the absorbance read at 540 nm. Percentage growth inhibition was determined at a fixed drug concentration of 25 µM. A value of 100% is indicative of complete cell growth inhibition. Those analogues showing appreciable percentage growth inhibition underwent further dose–response analysis allowing for the calculation of a GI50 value. This value is the drug concentration at which cell growth is 50% inhibited based on the difference between the optical density values on day 0 and those at the end of drug exposure.

Data set [22] has as its system Du145 (prostate carcinoma). Briefly: MTT in vitro growth inhibition assay, Du145. The following applies: Homo sapiens. The format is cell-based.
For data set [23], the system named is A431 (skin carcinoma). Put plainly: MTT in vitro growth inhibition assay, A431. Particulars: Homo sapiens. Format: cell-based.
Data set [24] relates to MCF-7 (breast carcinoma). Briefly: MTT in vitro growth inhibition assay, MCF-7. Format: cell-based. The following applies: Homo sapiens.

Structures are written as SMILES. Where two headings read alike, the source gives them in different places.

The values below come from PMC5936891, “A focused library synthesis and cytotoxicity of quinones derived from the natural product bolinaquinone” (Royal Society Open Science, 2018).

In the case of `COC1=CC(=O)C(O)=C(C[C@@]2(C)CC[C@]3(C)C(C)=CCC[C@H]3[C@H]2C)C1=O` [compound 1, bolinaquinone], the GI50 in data set [1] (50% growth inhibition) is 5300 nM.
In the case of `CC1=CCC[C@H]2[C@](C)(CC3=CC(=O)C=CC3=O)[C@@H](C)CC[C@]12C` [compound 2, avarone], the “ED50 L5178Y mouse lymphoma cells” value in [2] was 620 ± 110 nM. Besides, in [3], the 50% growth inhibitory concentration (GI50) was 26800 ± 3000 nM.
Turning to `COC1=CC(=O)C(O)=C(C[C@@]2(C)[C@H](C)[C@@H]3CCCC(C)(C)C3=C[C@@H]2C)C1=O` [compound 3, mamanuthaquinone], the GI50 in data set [1] is 5580 nM.
With `C=C1CCC[C@H]2[C@](C)(CC3=C(O)C(=O)C=C(OC)C3=O)[C@@H](C)CC[C@]12C` [compound 4, epi-ilimaquinone], the GI50 in data set [4] was 9480 nM; in [5] it was 3100 nM; in data set [6], 2510 nM; in data set [7], 6140 nM.
As to `CC1=CCC[C@H]2[C@](C)(CC3=C(O)C(=O)C=C(NCC(=O)O)C3=O)[C@@H](C)CC[C@]12C` [compound 5, nakijiquinone A], the concentration for 50% growth inhibition (GI50) in data set [8] was 9460 nM. For the same molecule, in data set [9], the “GI50 epidermoid KB” value was 18920 nM.
Take `CC1=CCC[C@H]2[C@](C)(CC3=CC(=O)C=C(NCC(C)C)C3=O)[C@@H](C)CC[C@]12C` [compound 6, dysidaminone E-5]: in [10], the GI50 is 940 nM.
For the molecule `CC1=CCC[C@H]2[C@](C)(CC3=CC(=O)C=C(NCCc4ccccc4)C3=O)[C@@H](C)CC[C@]12C` [compound 7, 18-phenethylaminoavarone], in data set [11], the GI50 was 1760 nM.
Molecule `CCCNC1=C(c2ccc3ccccc3c2)C(=O)C(NCCC)=C(c2cccc3ccccc23)C1=O` [compound 43] had a melting point of 210 to 213 °C. Moreover, in data set [12] (25 µM of drug, 72 h, read-out: Percentage of Cell Growth Inhibition U87), the inhibition at 25 µM turned out to be 91 ± 1%. The GI50 in data set [12] (72 h drug exposure) came to 2100 ± 1000 nM. In addition, in data set [13] (HT-29, 25 µM of drug, 72 h, read-out: Percentage of Cell Growth Inhibition HT29), the inhibition at 25 µM was 81 ± 2%. Further, growth in data set [13] (HT-29, 72 h drug exposure) was halved (GI50) at 80 nM. In addition, in data set [14] (25 µM of drug, 72 h, read-out: Percentage of Cell Growth Inhibition SMA), the inhibition at 25 µM worked out at 80 ± 7%. In [14] (72 h drug exposure), this molecule registered a GI50 of 3900 ± 3500 nM. Moreover, in [15] (NCI-H460, 25 µM of drug, 72 h, read-out: Percentage of Cell Growth Inhibition H460), the inhibition at 25 µM was 76 ± 1%. In data set [15] (NCI-H460, 72 h drug exposure), this molecule returned a GI50 of 110 nM. The inhibition at 25 µM in data set [16] (25 µM of drug, 72 h, read-out: Percentage of Cell Growth Inhibition MIA) was determined as 90 ± 2%. Moreover, the 50% growth inhibitory concentration (GI50) in data set [16] (72 h drug exposure) came out at 100 nM. Besides, the inhibition at 25 µM in [17] (25 µM of drug, read-out: Percentage of Cell Growth Inhibition BE2-C) was 44 ± 6%. For the same molecule, in data set [17] (72 h drug exposure), the 50% growth inhibitory concentration (GI50) worked out at 80 nM. Further, in data set [18], the inhibition at 25 µM worked out at 55 ± 1%. For the same molecule, the inhibition at 25 µM in data set [19] (25 µM of drug, 72 h, read-out: Percentage of Cell Growth Inhibition A2780) was 94 ± 1%. The same molecule returned a concentration for 50% growth inhibition (GI50) in data set [19] (72 h drug exposure) of 140 ± 100 nM. For the same molecule, in data set [20] (25 µM of drug, 72 h, read-out: Percentage of Cell Growth Inhibition MCF10A), the inhibition at 25 µM is 89 ± 2%. In data set [20] (normal breast cell line, 72 h drug exposure), this molecule yielded a 50% growth inhibitory concentration (GI50) of 70 nM. In addition, the “activity at the initial screening concentration (to proceed to GI50 determination)” value in data set [21] (25 µM single dose) was “sufficient activity”. In data set [21] (41 vs parent 29, 43 vs parent 33, on introduction of amine substituents), the “potency enhancement over parent analogue” value is “greater than or equal to 20 fold”. Further, the 50% growth inhibitory concentration (GI50) in data set [21] (average over the cell line panel, read-out: average GI50) stood at 690 nM. Besides, the inhibition at 25 µM in [22] (DU-145, 25 µM of drug, 72 h, read-out: Percentage of Cell Growth Inhibition Du145) stood at 80 ± 2%. The molecule further showed a GI50 in [22] (DU-145, 72 h, 72 h drug exposure) of 160 ± 100 nM. The inhibition at 25 µM in data set [23] (A-431, 25 µM of drug, 72 h, read-out: Percentage of Cell Growth Inhibition A431) came out at 92 ± 1%. Halving of growth in data set [23] (A-431, 72 h, 72 h drug exposure) (GI50) required 110 nM. Also, the inhibition at 25 µM in data set [24] (MCF7, 25 µM of drug, 72 h, read-out: Percentage of Cell Growth Inhibition MCF-7) came out at 77 ± 2%. The same molecule registered a GI50 in data set [24] (MCF7, 72 h drug exposure) of 170 ± 100 nM.
